The record followed here is ChEMBL document CHEMBL5325491, “Small-Molecule Hydrophobic Tagging: A Promising Strategy of Druglike Technology for Targeted Protein Degradation” (J Med Chem, 2023).

One assay has as its system PC-9. Kind of assay: Anticancer activity against human PC-9 cells xenografted in NSG mouse assessed as tumor growth inhibition at 20 mg/kg, ip administered once every two days for 14 days relative to control. The assay is classed as functional. The note with it: PC-9, 336 h, time 14 day, read-out: TGI. On the technique in general: A xenograft is tissue or cells of one species grown in another, often human tumour cells in immunodeficient mice.

The target of assay [1] is RAC-alpha serine/threonine-protein kinase (Homo sapiens, UniProt P31749). Put plainly: Induction of Akt1 (unknown origin) degradation.
Chain of RAC-alpha serine/threonine-protein kinase (P31749 whole entry): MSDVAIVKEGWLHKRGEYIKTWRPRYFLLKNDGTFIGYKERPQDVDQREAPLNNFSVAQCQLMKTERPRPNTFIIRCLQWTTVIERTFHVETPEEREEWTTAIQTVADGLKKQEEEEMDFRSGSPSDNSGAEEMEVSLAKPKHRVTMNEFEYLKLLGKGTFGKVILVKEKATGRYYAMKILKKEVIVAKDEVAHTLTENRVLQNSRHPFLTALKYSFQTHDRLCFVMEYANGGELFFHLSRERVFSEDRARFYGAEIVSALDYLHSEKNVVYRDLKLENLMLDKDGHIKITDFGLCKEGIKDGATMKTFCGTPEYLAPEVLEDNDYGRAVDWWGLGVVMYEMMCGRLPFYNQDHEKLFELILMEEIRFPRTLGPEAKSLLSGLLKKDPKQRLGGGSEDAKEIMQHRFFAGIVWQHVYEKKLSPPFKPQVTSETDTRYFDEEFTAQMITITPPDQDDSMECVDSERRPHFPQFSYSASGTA
Assay [2] is described as follows: Induction of Akt2 (unknown origin) degradation. The arrangement: species or system Homo sapiens.
Assay [3] deals with RAC-gamma serine/threonine-protein kinase (Homo sapiens, UniProt Q9Y243). Put plainly: Induction of Akt3 (unknown origin) degradation.
Chain of RAC-gamma serine/threonine-protein kinase (Q9Y243 whole entry): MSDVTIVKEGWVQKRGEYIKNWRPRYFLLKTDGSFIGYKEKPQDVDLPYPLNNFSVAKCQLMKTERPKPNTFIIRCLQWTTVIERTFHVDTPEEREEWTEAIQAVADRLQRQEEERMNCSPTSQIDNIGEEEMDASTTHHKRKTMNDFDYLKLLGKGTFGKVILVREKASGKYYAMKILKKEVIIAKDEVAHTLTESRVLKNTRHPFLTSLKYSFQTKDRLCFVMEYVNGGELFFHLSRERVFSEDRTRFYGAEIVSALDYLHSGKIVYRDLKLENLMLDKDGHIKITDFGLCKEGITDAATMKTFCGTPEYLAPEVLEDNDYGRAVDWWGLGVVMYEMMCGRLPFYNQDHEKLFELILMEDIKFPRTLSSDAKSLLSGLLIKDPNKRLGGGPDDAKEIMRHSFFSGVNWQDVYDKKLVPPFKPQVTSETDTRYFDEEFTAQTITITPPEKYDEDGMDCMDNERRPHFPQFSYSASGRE
Assay [4] concerns the target TAR DNA-binding protein 43 (Mus musculus) (UniProt Q921F2). Kind of assay: Induction of TDP-43 degradation in mouse N2a cells at 100 uM measured after 24 hrs by Western blot analysis relative to control. The assay is classed as cell-based. In general terms: A western blot detects proteins with antibodies after separation by electrophoresis.
Another assay has as its system OVCAR-8. Kind of assay: Antiproliferative activity against HER3 dependent human OVCAR-8 cells assessed as cell viability by CellTiter-Glo Luminescent Assay. The format is functional, cell-based. For orientation: In ATP-based viability assays light output follows the ATP content of the culture.
Assay [5] can be described thus: Antiproliferative activity against HER3 dependent human PC9 Gefitinib-resistant 4 (GR4) cell assessed as cell viability by CellTiter-Glo Luminescent Assay. The format is functional, cell-based.
Assay [6] is described as follows: Antiproliferative activity against HER3 dependent human HCC827 Gefitinib-resistant 6 (GR6) cell assessed as cell viability by CellTiter-Glo Luminescent Assay. The assay is classed as functional, cell-based.
Another assay has as its system HCC70. Kind of assay: Anticancer activity against EZH2 dependent human HCC70 cells assessed as cell growth inhibition by MTT assay. The format is functional.
A further assay concerns HCC1187. Put plainly: Anticancer activity against EZH2 dependent human HCC1187 cells assessed as cell growth inhibition by MTT assay. The format is functional.
Another assay has as its system HCC1954. Kind of assay: Anticancer activity against EZH2 dependent human HCC1954 cells assessed as cell growth inhibition by MTT assay. The assay is classed as functional.
Another assay concerns BT-549. Kind of assay: Anticancer activity against EZH2 dependent human BT-549 cells assessed as cell growth inhibition by MTT assay. The assay is classed as functional.
For another assay, the system named is KARPAS-422. Kind of assay: Anticancer activity against EZH2 dependent human KARPAS-422 cells assessed as cell growth inhibition by MTT assay. The format is functional.
The subject of another assay is MCF7. Put plainly: Anticancer activity against EZH2 dependent human MCF7 cells assessed as cell growth inhibition by MTT assay. The format is functional.
The test system of the next assay is SU-DHL-8. Put plainly: Anticancer activity against EZH2 dependent human SU-DHL-8 cells assessed as cell growth inhibition by MTT assay. The assay is classed as functional.
Assay [7] addresses ALK tyrosine kinase receptor (Homo sapiens, UniProt Q9UM73). Kind of assay: Induction of ALK (unknown origin) degradation.
Assay [8] has as its target Microtubule-associated protein tau (Mus musculus) (UniProt P10637). Put plainly: Induction of tau degradation in mouse N2a cells at 150 uM measured after 24 hrs by Western blot analysis relative to control. The format is cell-based.
Another assay has as its system NCI-H3122. Put plainly: Anticancer activity against human NCI-H3122 cells xenografted in mouse assessed as tumor growth inhibition at 20 mg/kg, po administered once every two days for 3 weeks relative to control. The assay is classed as functional. Particulars: NCI-H3122, 504 h, read-out: TGI.
The target of assay [9] is T1, Glutathione S-transferase A1 (Homo sapiens) (UniProt P08263).
T1 sequence (whole entry): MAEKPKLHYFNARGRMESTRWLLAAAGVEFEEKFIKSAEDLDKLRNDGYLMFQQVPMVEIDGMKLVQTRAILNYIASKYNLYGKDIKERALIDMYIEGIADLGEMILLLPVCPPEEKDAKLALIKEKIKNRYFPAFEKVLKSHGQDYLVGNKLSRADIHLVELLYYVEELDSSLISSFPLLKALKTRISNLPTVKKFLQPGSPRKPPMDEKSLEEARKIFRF
Put plainly: Induction of GSTAlpha1 degradation in human HeLa cells at 80 uM measured after 4 hrs relative to control. The format is cell-based.

The target in assay [10] is T1, Glutathione S-transferase A1 (Homo sapiens). Kind of assay: Induction of GSTAlpha1 degradation in […] cells at 40 uM measured after 4 hrs. The format is cell-based.
Assay [11] addresses T2, Dihydrofolate reductase (Escherichia coli) (UniProt P0ABQ4).
T2 sequence (whole entry): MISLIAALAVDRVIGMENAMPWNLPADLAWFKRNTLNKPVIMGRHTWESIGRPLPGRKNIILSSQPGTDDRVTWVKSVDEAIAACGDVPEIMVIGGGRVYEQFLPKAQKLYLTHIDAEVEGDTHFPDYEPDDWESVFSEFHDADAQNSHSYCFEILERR
Put plainly: Induction of Escherichia coli DHFR degradation in […] cells at 80 uM measured after 4 hrs. The assay is classed as cell-based.

pEC50: −log10 of the molar value. Starred links: 1 amine or outer side, 2 acyl side, 3 side chain; linkers in the order of their positions; H or OH if unused. Non-standard residues stand in square brackets, D forms with d. Residues, ends and D or L forms follow the SMILES beside them. *: point of attachment. Adamantane1carbonyl = O=C(C12CC3CC(CC(C3)C1)C2)*; X1 = O=C(C12CC3CC(CC(N[*:1])(C3)C1)C2)[*:2]

The DC50 is the midpoint of the concentration-degradation curve. A lower DC50 goes with degradation at low concentration. Usually pEC50 stands for the EC50 on a negative log10 scale, so that one unit is a factor of ten. Usually GI50 stands for the concentration giving 50% growth inhibition.

Chain of ALK tyrosine kinase receptor (Q9UM73 whole entry): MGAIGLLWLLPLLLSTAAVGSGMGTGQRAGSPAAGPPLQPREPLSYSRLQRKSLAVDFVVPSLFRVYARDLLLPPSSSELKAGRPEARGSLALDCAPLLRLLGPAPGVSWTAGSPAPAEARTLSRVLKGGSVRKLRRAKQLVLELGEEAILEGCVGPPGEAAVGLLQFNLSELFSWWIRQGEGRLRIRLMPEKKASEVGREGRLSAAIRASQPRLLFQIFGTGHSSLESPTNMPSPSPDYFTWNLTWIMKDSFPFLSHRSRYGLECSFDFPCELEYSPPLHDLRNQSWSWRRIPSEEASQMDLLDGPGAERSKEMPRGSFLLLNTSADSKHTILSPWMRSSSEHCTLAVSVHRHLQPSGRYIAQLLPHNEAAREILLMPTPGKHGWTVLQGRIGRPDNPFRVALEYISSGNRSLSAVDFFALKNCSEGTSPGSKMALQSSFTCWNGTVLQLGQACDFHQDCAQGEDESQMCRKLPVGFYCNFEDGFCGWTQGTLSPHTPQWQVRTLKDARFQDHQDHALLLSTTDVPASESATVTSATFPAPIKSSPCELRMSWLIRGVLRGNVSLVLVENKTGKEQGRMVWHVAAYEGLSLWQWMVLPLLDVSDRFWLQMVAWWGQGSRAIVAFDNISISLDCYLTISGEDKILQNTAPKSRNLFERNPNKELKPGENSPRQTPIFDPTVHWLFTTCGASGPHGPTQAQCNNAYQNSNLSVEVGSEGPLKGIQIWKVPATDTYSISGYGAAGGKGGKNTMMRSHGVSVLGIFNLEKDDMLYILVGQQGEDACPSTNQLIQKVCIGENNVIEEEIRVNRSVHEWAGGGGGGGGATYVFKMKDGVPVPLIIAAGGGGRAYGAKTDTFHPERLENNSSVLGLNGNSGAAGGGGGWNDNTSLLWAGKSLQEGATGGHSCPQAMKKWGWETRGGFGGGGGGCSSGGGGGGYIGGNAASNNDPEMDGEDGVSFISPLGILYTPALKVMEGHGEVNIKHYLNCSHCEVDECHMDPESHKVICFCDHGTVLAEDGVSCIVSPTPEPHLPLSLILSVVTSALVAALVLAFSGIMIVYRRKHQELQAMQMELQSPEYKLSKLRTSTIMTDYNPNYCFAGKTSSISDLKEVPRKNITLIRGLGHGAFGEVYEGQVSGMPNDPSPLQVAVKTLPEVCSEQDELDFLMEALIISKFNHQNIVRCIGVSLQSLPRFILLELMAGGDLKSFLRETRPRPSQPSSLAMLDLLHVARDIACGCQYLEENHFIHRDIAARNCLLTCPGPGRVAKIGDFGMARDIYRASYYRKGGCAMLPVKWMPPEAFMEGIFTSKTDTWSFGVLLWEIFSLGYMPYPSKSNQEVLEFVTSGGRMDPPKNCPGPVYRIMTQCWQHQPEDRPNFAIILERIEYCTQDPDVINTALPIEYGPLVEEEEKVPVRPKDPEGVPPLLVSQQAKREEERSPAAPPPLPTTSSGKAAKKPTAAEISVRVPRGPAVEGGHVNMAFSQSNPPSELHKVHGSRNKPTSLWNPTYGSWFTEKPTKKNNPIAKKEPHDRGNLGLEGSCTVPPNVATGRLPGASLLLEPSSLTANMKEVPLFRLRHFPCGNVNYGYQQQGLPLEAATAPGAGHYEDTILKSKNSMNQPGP
Chain of Microtubule-associated protein tau (Mus musculus) (P10637 whole entry): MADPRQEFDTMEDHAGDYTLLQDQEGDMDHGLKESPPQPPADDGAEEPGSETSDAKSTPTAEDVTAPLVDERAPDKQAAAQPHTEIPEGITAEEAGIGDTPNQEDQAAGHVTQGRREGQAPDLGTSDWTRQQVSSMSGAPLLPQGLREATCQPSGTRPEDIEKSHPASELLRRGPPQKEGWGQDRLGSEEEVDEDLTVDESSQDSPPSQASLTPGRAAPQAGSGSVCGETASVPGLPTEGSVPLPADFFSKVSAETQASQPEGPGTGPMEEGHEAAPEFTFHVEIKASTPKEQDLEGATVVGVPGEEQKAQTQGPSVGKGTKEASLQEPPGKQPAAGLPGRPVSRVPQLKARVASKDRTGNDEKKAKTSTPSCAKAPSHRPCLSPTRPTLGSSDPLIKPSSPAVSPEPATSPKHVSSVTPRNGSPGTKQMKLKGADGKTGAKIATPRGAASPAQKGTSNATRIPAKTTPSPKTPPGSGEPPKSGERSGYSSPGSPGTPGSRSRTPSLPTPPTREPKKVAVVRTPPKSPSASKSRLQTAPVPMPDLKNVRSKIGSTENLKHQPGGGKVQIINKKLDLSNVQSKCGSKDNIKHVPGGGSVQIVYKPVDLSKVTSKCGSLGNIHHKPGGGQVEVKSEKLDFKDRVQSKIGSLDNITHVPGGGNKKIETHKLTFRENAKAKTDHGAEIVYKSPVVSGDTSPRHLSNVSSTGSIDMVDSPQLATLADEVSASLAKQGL
Chain of TAR DNA-binding protein 43 (Mus musculus) (Q921F2 whole entry): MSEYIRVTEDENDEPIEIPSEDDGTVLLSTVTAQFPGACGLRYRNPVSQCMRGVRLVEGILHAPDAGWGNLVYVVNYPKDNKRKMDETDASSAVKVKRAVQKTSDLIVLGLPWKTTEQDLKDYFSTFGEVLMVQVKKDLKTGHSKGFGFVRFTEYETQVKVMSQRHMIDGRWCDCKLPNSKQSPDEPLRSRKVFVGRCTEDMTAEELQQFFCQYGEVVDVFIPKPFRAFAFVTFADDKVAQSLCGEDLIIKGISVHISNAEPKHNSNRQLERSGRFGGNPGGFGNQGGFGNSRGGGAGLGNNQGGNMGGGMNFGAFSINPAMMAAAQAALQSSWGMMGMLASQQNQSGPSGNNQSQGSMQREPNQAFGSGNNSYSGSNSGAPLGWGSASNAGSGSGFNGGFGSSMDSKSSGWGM

In the case of `COc1cc(N2CCN(CCCCCCCCCCCCNC(=O)CC34CC5CC(CC(C5)C3)C4)CC2)ccc1Nc1ncc2c(C)cc(=O)n(-c3cccc(NC(=O)C4CC4)c3)c2n1`, the inhibition in vivo at 20 mg/kg in the assay on PC-9 is 75%. Further, the DC50 in assay [1] is above 1000 nM; in assay [2], above 1000 nM; in [3], 13 nM.

In the case of `CC[C@H](C)[C@H](NC(=O)CNC(=O)[C@H](CCCCN)NC(=O)[C@@H](NC(=O)[C@@H](NC(=O)[C@H](CC(C)C)NC(=O)[C@H](CC(=O)O)NC(=O)[C@H](CCC(=O)O)NC(=O)[C@H](CO)NC(=O)CNC(=O)[C@H](CO)NC(=O)CNC(=O)[C@H](CCCCN)NC(=O)C12CC3CC(CC(NC(=O)C45CC6CC(CC(C6)C4)C5)(C3)C1)C2)[C@@H](C)CC)[C@@H](C)CC)C(=O)N[C@@H](CO)C(=O)N[C@H](C(=O)NCC(=O)N[C@@H](CCCNC(=N)N)C(=O)N[C@@H](CCCCN)C(=O)N[C@@H](CCCCN)C(=O)N[C@@H](CCCNC(=N)N)C(=O)N[C@@H](CCCNC(=N)N)C(=O)N[C@@H](CCC(N)=O)C(=O)N[C@@H](CCCNC(=N)N)C(=O)N[C@@H](CCCNC(=N)N)C(=O)N[C@@H](CCCNC(=N)N)C(N)=O)C(C)C` (Adamantane1carbonyl-[X1]KGSGSEDLIIKGISVGRKKRRQRRR-NH2), in [4], the Activity was 80%.

With `C=CC(=O)Nc1cc(-c2nn(C3CCN(CCNC(=O)[C@H](C)CCC45CC6CC(CC(C6)C4)C5)CC3)c3ncnc(N)c23)ccc1Oc1ccccc1`, the pEC50 (in the assay on OVCAR-8; in assay [5]; in assay [6]) was 6.10 each time.

Turning to `Cc1cc(C)c(CNC(=O)c2cc(-c3ccc(N4CCN(CCNC(=O)CC56CC7CC(CC(C7)C5)C6)CC4)nc3)cc3c2cnn3C(C)C)c(=O)[nH]1`, the 50% growth inhibitory concentration (GI50) in the assay with HCC70, in the assay with HCC1187, with HCC1954, in the assay with BT-549, with KARPAS-422 and with MCF7 was 1100 nM throughout. Moreover, the concentration for 50% growth inhibition (GI50) in the assay on SU-DHL-8 was 1100 nM.

Regarding `COc1cc(N2CCN(CC(=O)NCC3CC4C=CC3C4)CC2)ccc1Nc1ncc(Cl)c(Nc2ccccc2P(C)(C)=O)n1` (stereo not drawn), in assay [7], the 50% degradation concentration (DC50) is 89 nM. That is a double-digit nanomolar value.

For `Cc1cc(Nc2ncc(Cl)c(Nc3ccccc3S(=O)(=O)C(C)C)n2)c(OC(C)C)cc1C1CCN(CC(=O)NCC2CC3C=CC2C3)CC1` (stereo not drawn), half-maximal degradation in assay [7] (DC50) was put at 314 nM.

`C[C@H](NC(=O)[C@H](CC(=O)O)NC(=O)[C@H](CCC(N)=O)NC(=O)[C@H](Cc1ccc(O)cc1)NC(=O)[C@H](CCC(N)=O)NC(=O)[C@H](CCC(N)=O)NC(=O)[C@H](Cc1ccc(O)cc1)NC(=O)C12CC3CC(CC(C3)C1)C2)C(=O)N[C@H](C(=O)N[C@@H](C)C(=O)N[C@@H](CC(=O)O)C(=O)N[C@@H](CCC(=O)O)C(=O)N[C@@H](CCC(N)=O)C(=O)NCC(=O)N[C@H](CCCNC(=N)N)C(=O)N[C@H](CCCNC(=N)N)C(=O)N[C@H](CCCNC(=N)N)C(=O)N[C@H](CCCNC(=N)N)C(=O)N[C@H](CCCNC(=N)N)C(=O)N[C@H](CCCNC(=N)N)C(=O)N[C@H](CCCNC(=N)N)C(=O)N[C@H](CCCNC(=N)N)C(N)=O)[C@@H](C)O` had an Activity in assay [8] of 88%.

In turn, `CCc1cc2c(cc1N1CCN(CCCCC(=O)NCC3CC4C=CC3C4)CC1)C(C)(C)c1[nH]c3cc(C#N)ccc3c1C2=O` (stereo not drawn) had a DC50 in [7] of 134 nM. Also, in the assay on NCI-H3122, the inhibition in vivo at 20 mg/kg was 58%.

Regarding `C=C(CC)C(=O)c1ccc(OCC(=O)O)c(Cl)c1Cl`, the Activity in [9] stood at 75%.

As for `COc1cc(Cc2cnc(N)nc2N)cc(OC)c1OCC(=O)NCCCCCCNC(=O)[C@@H](CCCN/C(=N\C(=O)OC(C)(C)C)NC(=O)OC(C)(C)C)NC(=O)OC(C)(C)C`, the Activity in [10] stood at 80%; in [11], 60%.
